Data set [1] addresses T1, Nuclear receptor subfamily 1 group I member 3 (Homo sapiens, UniProt Q14994).
T1 sequence (Q14994 whole entry): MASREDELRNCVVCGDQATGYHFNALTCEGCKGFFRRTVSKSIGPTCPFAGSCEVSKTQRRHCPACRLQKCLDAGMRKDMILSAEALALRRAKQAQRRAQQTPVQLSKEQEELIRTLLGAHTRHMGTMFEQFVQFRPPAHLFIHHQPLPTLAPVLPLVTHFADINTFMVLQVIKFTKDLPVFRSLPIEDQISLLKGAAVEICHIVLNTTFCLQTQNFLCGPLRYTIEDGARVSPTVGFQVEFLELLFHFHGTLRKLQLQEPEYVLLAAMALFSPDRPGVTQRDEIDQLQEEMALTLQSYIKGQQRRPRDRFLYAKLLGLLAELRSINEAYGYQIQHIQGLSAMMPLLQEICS
The experiment in a line: Transactivation of human CAR1 transfected in human primary hepatocytes assessed as nuclear translocation at 1 mM by confocal laser scanning microscopy. Type of data set: cell-based, Hepatocyte. To be noted: 1000 µM.

Data set [2] addresses T2, Nuclear receptor subfamily 1 group I member 2 (Rattus norvegicus, UniProt Q9R1A7).
T2 sequence (Q9R1A7 whole entry): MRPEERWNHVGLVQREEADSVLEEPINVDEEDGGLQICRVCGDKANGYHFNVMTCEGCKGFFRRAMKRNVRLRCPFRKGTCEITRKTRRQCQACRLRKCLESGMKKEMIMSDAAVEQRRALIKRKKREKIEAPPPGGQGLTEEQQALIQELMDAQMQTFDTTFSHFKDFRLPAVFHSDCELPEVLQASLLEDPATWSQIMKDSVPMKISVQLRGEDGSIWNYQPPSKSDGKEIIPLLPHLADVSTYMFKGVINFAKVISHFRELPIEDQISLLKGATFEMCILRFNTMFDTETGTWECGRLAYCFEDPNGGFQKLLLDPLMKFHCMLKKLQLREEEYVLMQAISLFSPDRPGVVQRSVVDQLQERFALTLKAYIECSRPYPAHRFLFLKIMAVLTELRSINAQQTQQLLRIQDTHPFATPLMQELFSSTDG
The experiment in a line: Transactivation of rat PXR at 0.1 to 30 uM after 24 to 48 hrs by cell-based luciferase reporter gene assay. Type of data set: ADME. On the technique in general: In a reporter assay the amount or activity of a reporter protein is the signal.

Data set [3] in a line: Transactivation of human CAR1 Ala retention mutant transfected in human HepG2 cells assessed as CYP2B6 expression at 1 to 30 uM after 24 hrs by luciferase reporter gene assay. To be noted: hepg2, 24 h. Type of data set: ADME, cell-based.
The target in data set [4] is T1, Nuclear receptor subfamily 1 group I member 3. The experiment in a line: Transactivation of human CAR1 transfected in human HepG2 cells assessed as CYP2B6 expression at 1 to 30 uM after 24 hrs by luciferase reporter gene assay. Type of data set: ADME, cell-based. To be noted: hepg2, 24 h.
Data set [5] addresses T3, Nuclear receptor subfamily 1 group I member 3 (Mus musculus, UniProt O35627).
T3 sequence (O35627 whole entry): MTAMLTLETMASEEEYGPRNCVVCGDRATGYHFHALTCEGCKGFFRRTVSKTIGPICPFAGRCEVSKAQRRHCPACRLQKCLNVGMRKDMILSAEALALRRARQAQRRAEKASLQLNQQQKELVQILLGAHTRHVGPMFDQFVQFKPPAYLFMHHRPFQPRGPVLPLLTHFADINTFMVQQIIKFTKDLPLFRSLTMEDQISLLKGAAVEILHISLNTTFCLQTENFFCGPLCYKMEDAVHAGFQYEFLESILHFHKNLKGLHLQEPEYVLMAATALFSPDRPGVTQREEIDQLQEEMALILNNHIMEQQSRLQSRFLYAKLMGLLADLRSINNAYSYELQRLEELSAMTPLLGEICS
The experiment in a line: Transactivation of mouse CAR1 transfected in human HepG2 cells assessed as CYP2B6 expression at 1 to 30 uM after 24 hrs by luciferase reporter gene assay. To be noted: hepg2, 24 h. Type of data set: ADME, cell-based.

In data set [6] the target is T4, Aryl hydrocarbon receptor (Homo sapiens, UniProt P35869).
T4 sequence (P35869 whole entry): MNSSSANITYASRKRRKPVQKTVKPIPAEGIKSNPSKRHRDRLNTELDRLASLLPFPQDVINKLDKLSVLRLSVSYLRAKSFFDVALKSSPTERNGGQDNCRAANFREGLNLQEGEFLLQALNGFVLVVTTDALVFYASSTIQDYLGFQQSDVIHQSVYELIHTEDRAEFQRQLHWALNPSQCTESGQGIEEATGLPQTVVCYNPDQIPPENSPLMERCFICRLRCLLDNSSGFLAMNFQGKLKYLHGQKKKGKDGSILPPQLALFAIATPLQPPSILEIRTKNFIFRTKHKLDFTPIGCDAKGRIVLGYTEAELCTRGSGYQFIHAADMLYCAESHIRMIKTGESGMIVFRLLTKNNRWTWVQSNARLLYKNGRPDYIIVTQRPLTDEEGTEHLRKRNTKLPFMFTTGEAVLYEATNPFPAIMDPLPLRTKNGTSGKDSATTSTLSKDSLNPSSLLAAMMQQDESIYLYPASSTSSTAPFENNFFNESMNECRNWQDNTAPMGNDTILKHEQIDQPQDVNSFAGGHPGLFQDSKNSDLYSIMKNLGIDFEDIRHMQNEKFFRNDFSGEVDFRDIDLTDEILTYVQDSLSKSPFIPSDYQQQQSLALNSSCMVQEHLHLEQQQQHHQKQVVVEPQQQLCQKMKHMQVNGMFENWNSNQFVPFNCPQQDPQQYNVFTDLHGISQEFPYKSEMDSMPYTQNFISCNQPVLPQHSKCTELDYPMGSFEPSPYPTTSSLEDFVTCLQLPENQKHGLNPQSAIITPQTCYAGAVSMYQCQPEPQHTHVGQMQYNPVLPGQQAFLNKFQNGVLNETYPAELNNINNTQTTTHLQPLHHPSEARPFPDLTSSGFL
The experiment in a line: Transactivation of human AhR at 0.1 to 30 uM after 24 to 48 hrs by cell-based luciferase reporter gene assay.

Data set [7] has as its target T1, Nuclear receptor subfamily 1 group I member 3. The experiment in a line: Transactivation of human CAR1 transfected in human primary hepatocytes assessed as nuclear translocation at 30 uM by confocal laser scanning microscopy. Type of data set: cell-based, Hepatocyte.

As to `CCC1(c2ccccc2)C(=O)NC(=O)NC1=O` [PHENOBARBITAL], in data set [1], the outcome was Active.
With `COc1ccc2c3c1O[C@H]1C(=O)CC[C@@]4(O)[C@@H](C2)NCC[C@]314`, the Activity entry in data set [2] is on record as “Not Active”; in data set [3], “Not Active”; in data set [4], “Active”; in data set [5] it was “Not Active”; in data set [6], “Not Active”.
With `CN1CC[C@]23c4c5ccc(O)c4O[C@H]2C(=O)CC[C@@]3(O)[C@H]1C5` [OXYMORPHONE], the Activity entry in data set [2] is listed as “Not Active”; in data set [3] it was “Not Active”; in data set [4] it was “Active”; in data set [5] it was “Not Active”; in data set [6], “Not Active”.
For the compound `COc1ccc2c3c1O[C@H]1C(=O)CC[C@@]4(O)[C@@H](C2)N(C)CC[C@]314` [OXYCODONE], the Activity entry is reported as “Not Active” in data set [2]; “Not Active” in data set [3]; “Not Active” in data set [7]; “Active” in data set [4]; “Not Active” in data set [5]; “Not Active” in data set [6].

(Values after ChEMBL document CHEMBL3526135, “Induction of xenobiotic receptors, transporters, and drug metabolizing enzymes by oxycodone” (Drug Metab Dispos, 2013).)
